From PubChem BioAssay (NCI)
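Grown in 96-well plates, cells were treated for 48 hours with each compound at five concentrations. Insufficient inhibition: endpoint recorded as highest concentration tested. GI50 = concentration required for 50% inhibition of growth. TGI marks complete inhibition of growth.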

Columns and labels:
Test in all cases: inhibition of tumour cell growth, NCI panel, 48 h
OVCAR-3 ovarian = test system: OVCAR-3 ovarian
SK-MEL-28 melanoma = test system: SK-MEL-28 melanoma
TK-10 renal = test system: TK-10 renal
PC-3 prostate = test system: PC-3 prostate
HS 578T breast = test system: HS 578T breast
HCT-15 colon = test system: HCT-15 colon
HT29 colon = test system: HT29 colon
NCI/ADR-RES ovarian = test system: NCI/ADR-RES ovarian
MOLT-4 leukemia = test system: MOLT-4 leukemia
UACC-257 melanoma = test system: UACC-257 melanoma
UACC-62 melanoma = test system: UACC-62 melanoma
M14 melanoma = test system: M14 melanoma
OVCAR-5 ovarian = test system: OVCAR-5 ovarian
HL-60(TB) leukemia = test system: HL-60(TB) leukemia
CCRF-CEM leukemia = test system: CCRF-CEM leukemia
NCI-H522 lung = test system: NCI-H522 lung
OVCAR-4 ovarian = test system: OVCAR-4 ovarian
HCC-2998 colon = test system: HCC-2998 colon
A549 NSCLC = test system: A549 NSCLC
NCI-H460 lung = test system: NCI-H460 lung
ACHN renal = test system: ACHN renal
MDA-MB-231 breast = test system: MDA-MB-231 breast
SNB-75 CNS = test system: SNB-75 CNS
SF-295 CNS = test system: SF-295 CNS
SF-539 CNS = test system: SF-539 CNS
RPMI-8226 leukemia = test system: RPMI-8226 leukemia
LOX IMVI melanoma = test system: LOX IMVI melanoma
COLO 205 colon = test system: COLO 205 colon
K-562 leukemia = test system: K-562 leukemia
SK-MEL-5 melanoma = test system: SK-MEL-5 melanoma
T-47D breast = test system: T-47D breast
SNB-19 CNS = test system: SNB-19 CNS
NCI-H226 lung = test system: NCI-H226 lung
CAKI-1 renal = test system: CAKI-1 renal
HOP-92 NSCLC = test system: HOP-92 NSCLC
KM12 colon = test system: KM12 colon
SR leukemia = test system: SR leukemia
EKVX NSCLC = test system: EKVX NSCLC
MALME-3M melanoma = test system: MALME-3M melanoma
U251 CNS = test system: U251 CNS
NCI-H23 lung = test system: NCI-H23 lung
SK-OV-3 ovarian = test system: SK-OV-3 ovarian
SK-MEL-2 melanoma = test system: SK-MEL-2 melanoma
786-0 renal = test system: 786-0 renal
IGROV1 ovarian = test system: IGROV1 ovarian
RXF 393 renal = test system: RXF 393 renal
HOP-62 NSCLC = test system: HOP-62 NSCLC
MDA-MB-435 = test system: MDA-MB-435
A498 renal = test system: A498 renal
SF-268 CNS = test system: SF-268 CNS
MCF7 breast = test system: MCF7 breast
SW-620 colon = test system: SW-620 colon
BT-549 breast = test system: BT-549 breast
OVCAR-8 ovarian = test system: OVCAR-8 ovarian
HCT-116 colon = test system: HCT-116 colon
SN12C renal = test system: SN12C renal
UO-31 renal = test system: UO-31 renal
DU-145 prostate = test system: DU-145 prostate
MDA-N = test system: MDA-N

CCN(CC)CCCC(C)Nc1ccnc2cc(Cl)c(SCc3ccccc3)cc12 (configuration not stated) gave a GI50 (OVCAR-3 ovarian) of 2310 nM, a TGI (OVCAR-3 ovarian) of 8070 nM and a GI50 (SK-MEL-28 melanoma) of 1150 nM. The TGI (SK-MEL-28 melanoma) was 2410 nM, the GI50 (TK-10 renal) was 512 nM and the TGI (TK-10 renal) was 1600 nM. For the same compound, the GI50 (PC-3 prostate) was 1720 nM, the TGI (PC-3 prostate) was 3960 nM and the GI50 (HS 578T breast) was 1970 nM. It also gave a TGI (HS 578T breast) of 5730 nM, a GI50 (HCT-15 colon) of 417 nM and a TGI (HCT-15 colon) of 1630 nM. The GI50 (HT29 colon) was 338 nM, the TGI (HT29 colon) was 1130 nM and the GI50 (NCI/ADR-RES ovarian) was 1440 nM. For the same compound, the TGI (NCI/ADR-RES ovarian) was 3170 nM, the GI50 (MOLT-4 leukemia) was 623 nM and the TGI (MOLT-4 leukemia) was 4140 nM. The GI50 (UACC-257 melanoma) was 781 nM, the TGI (UACC-257 melanoma) was 2110 nM and the GI50 (UACC-62 melanoma) was 214 nM. The TGI (UACC-62 melanoma) was 585 nM, the GI50 (M14 melanoma) was 189 nM and the TGI (M14 melanoma) was 351 nM. The GI50 (OVCAR-5 ovarian) was 1730 nM, the TGI (OVCAR-5 ovarian) was 3700 nM and the GI50 (HL-60(TB) leukemia) was 1810 nM. For the same compound, the TGI (HL-60(TB) leukemia) was 4230 nM, the GI50 (CCRF-CEM leukemia) was 442 nM and the TGI (CCRF-CEM leukemia) was 4940 nM. It also gave a GI50 (NCI-H522 lung) of 580 nM, a TGI (NCI-H522 lung) of 2010 nM and a GI50 (OVCAR-4 ovarian) of 1530 nM. The TGI (OVCAR-4 ovarian) was 4050 nM, the GI50 (HCC-2998 colon) was 511 nM and the TGI (HCC-2998 colon) was 1880 nM. The GI50 (A549 NSCLC) was 1850 nM, the TGI (A549 NSCLC) was 3590 nM and the GI50 (NCI-H460 lung) was 1770 nM. The TGI (NCI-H460 lung) was 4540 nM, the GI50 (ACHN renal) was 1300 nM and the TGI (ACHN renal) was 2730 nM. It also gave a GI50 (MDA-MB-231 breast) of 1270 nM, a TGI (MDA-MB-231 breast) of 2900 nM and a GI50 (SNB-75 CNS) of 1660 nM. The TGI (SNB-75 CNS) was 3320 nM, the GI50 (SF-295 CNS) was 1320 nM and the TGI (SF-295 CNS) was 3020 nM. For the same compound, the GI50 (SF-539 CNS) was 626 nM, the TGI (SF-539 CNS) was 2040 nM and the GI50 (RPMI-8226 leukemia) was 633 nM. For the same compound, the TGI (RPMI-8226 leukemia) was 2930 nM, the GI50 (LOX IMVI melanoma) was 199 nM and the TGI (LOX IMVI melanoma) was 552 nM. For the same compound, the GI50 (COLO 205 colon) was 1040 nM, the TGI (COLO 205 colon) was 2300 nM and the GI50 (K-562 leukemia) was 266 nM. The TGI (K-562 leukemia) was 702 nM, the GI50 (SK-MEL-5 melanoma) was 1310 nM and the TGI (SK-MEL-5 melanoma) was 2580 nM. The GI50 (T-47D breast) was 1980 nM, the TGI (T-47D breast) was 4770 nM and the GI50 (SNB-19 CNS) was 1780 nM. It also gave a TGI (SNB-19 CNS) of 4410 nM, a GI50 (NCI-H226 lung) of 2710 nM and a TGI (NCI-H226 lung) of 8480 nM. It also gave a GI50 (CAKI-1 renal) of 1190 nM, a TGI (CAKI-1 renal) of 2940 nM and a GI50 (HOP-92 NSCLC) of 1140 nM. The TGI (HOP-92 NSCLC) was 3200 nM, the GI50 (KM12 colon) was 1430 nM and the TGI (KM12 colon) was 3960 nM. The GI50 (SR leukemia) was 173 nM, the TGI (SR leukemia) was 539 nM and the GI50 (EKVX NSCLC) was 1930 nM. The TGI (EKVX NSCLC) was 6750 nM, the GI50 (MALME-3M melanoma) was 1710 nM and the TGI (MALME-3M melanoma) was 3680 nM. It also gave a GI50 (U251 CNS) of 1080 nM, a TGI (U251 CNS) of 2390 nM and a GI50 (NCI-H23 lung) of 1550 nM. The TGI (NCI-H23 lung) was 3570 nM, the GI50 (SK-OV-3 ovarian) was 1930 nM and the TGI (SK-OV-3 ovarian) was 3690 nM. For the same compound, the GI50 (SK-MEL-2 melanoma) was 1640 nM, the TGI (SK-MEL-2 melanoma) was 3220 nM and the GI50 (786-0 renal) was 1470 nM. The TGI (786-0 renal) was 2850 nM, the GI50 (IGROV1 ovarian) was 1810 nM and the TGI (IGROV1 ovarian) was 4950 nM. For the same compound, the GI50 (RXF 393 renal) was 1420 nM, the TGI (RXF 393 renal) was 2780 nM and the GI50 (HOP-62 NSCLC) was 1370 nM. The TGI (HOP-62 NSCLC) was 3010 nM, the GI50 (MDA-MB-435) was 275 nM and the TGI (MDA-MB-435) was 838 nM. For the same compound, the GI50 (A498 renal) was 1220 nM, the TGI (A498 renal) was 2680 nM and the GI50 (SF-268 CNS) was 1590 nM. The TGI (SF-268 CNS) was 3650 nM, the GI50 (MCF7 breast) was 506 nM and the TGI (MCF7 breast) was 1720 nM. The GI50 (SW-620 colon) was 928 nM, the TGI (SW-620 colon) was 2920 nM and the GI50 (BT-549 breast) was 1780 nM. The TGI (BT-549 breast) was 3280 nM, the GI50 (OVCAR-8 ovarian) was 1730 nM and the TGI (OVCAR-8 ovarian) was 3440 nM. The GI50 (HCT-116 colon) was 516 nM, the TGI (HCT-116 colon) was 1730 nM and the GI50 (SN12C renal) was 1700 nM. For the same compound, the TGI (SN12C renal) was 4070 nM, the GI50 (UO-31 renal) was 1350 nM and the TGI (UO-31 renal) was 2950 nM. It also gave a GI50 (DU-145 prostate) of 3450 nM and a TGI (DU-145 prostate) of 13500 nM.
For CCCCC/C(=N\c1nc[nH]c1C(N)=O)OCC, the TGI (OVCAR-3 ovarian) was > 100000 nM, the TGI (SK-MEL-28 melanoma) was > 100000 nM and the TGI (TK-10 renal) was > 100000 nM. The TGI (PC-3 prostate) was > 100000 nM, the TGI (HS 578T breast) was > 100000 nM and the TGI (MDA-N) was > 100000 nM. The TGI (HCT-15 colon) was > 100000 nM, the TGI (HT29 colon) was > 100000 nM and the TGI (NCI/ADR-RES ovarian) was > 100000 nM. For the same compound, the TGI (MOLT-4 leukemia) was > 100000 nM, the TGI (UACC-257 melanoma) was > 100000 nM and the TGI (UACC-62 melanoma) was > 100000 nM. For the same compound, the TGI (M14 melanoma) was > 100000 nM, the TGI (OVCAR-5 ovarian) was > 100000 nM and the TGI (HL-60(TB) leukemia) was > 100000 nM. For the same compound, the TGI (CCRF-CEM leukemia) was > 100000 nM, the TGI (NCI-H522 lung) was > 100000 nM and the TGI (OVCAR-4 ovarian) was > 100000 nM. For the same compound, the TGI (HCC-2998 colon) was > 100000 nM, the TGI (A549 NSCLC) was > 100000 nM and the TGI (NCI-H460 lung) was > 100000 nM. The TGI (ACHN renal) was > 100000 nM, the TGI (MDA-MB-231 breast) was > 100000 nM and the TGI (SF-295 CNS) was > 100000 nM. For the same compound, the TGI (SF-539 CNS) was > 100000 nM, the TGI (RPMI-8226 leukemia) was > 100000 nM and the TGI (LOX IMVI melanoma) was > 100000 nM. The TGI (COLO 205 colon) was > 100000 nM, the TGI (K-562 leukemia) was > 100000 nM and the TGI (SK-MEL-5 melanoma) was > 100000 nM. For the same compound, the TGI (SNB-19 CNS) was > 100000 nM, the TGI (NCI-H226 lung) was > 100000 nM and the TGI (CAKI-1 renal) was > 100000 nM. The TGI (KM12 colon) was > 100000 nM, the TGI (SR leukemia) was > 100000 nM and the TGI (EKVX NSCLC) was > 100000 nM. The TGI (MALME-3M melanoma) was > 100000 nM, the TGI (U251 CNS) was > 100000 nM and the TGI (NCI-H23 lung) was > 100000 nM. The TGI (SK-OV-3 ovarian) was > 100000 nM, the TGI (SK-MEL-2 melanoma) was > 100000 nM and the TGI (786-0 renal) was > 100000 nM. The TGI (IGROV1 ovarian) was > 100000 nM, the TGI (RXF 393 renal) was > 100000 nM and the TGI (HOP-62 NSCLC) was > 100000 nM. The TGI (MDA-MB-435) was > 100000 nM, the TGI (A498 renal) was > 100000 nM and the TGI (SF-268 CNS) was > 100000 nM. For the same compound, the TGI (MCF7 breast) was > 100000 nM, the TGI (SW-620 colon) was > 100000 nM and the TGI (BT-549 breast) was > 100000 nM. For the same compound, the TGI (OVCAR-8 ovarian) was > 100000 nM, the TGI (HCT-116 colon) was > 100000 nM and the TGI (SN12C renal) was > 100000 nM. For the same compound, the TGI (UO-31 renal) was > 100000 nM and the TGI (DU-145 prostate) was > 100000 nM.
